Measurements from US10004701B2, “Methods and compositions for treating infection” (UNIVERSITY OF ROCHESTER, priority 2012, dated 2018).
Counter-ions that a name gives are not always drawn. Like-named read-outs stand apart in the source and are kept apart here.

How the values were obtained:
Assay in all cases: AK assay 384-well format, Prestwick library screening
E. faecium = type: cell-based, Enterococcus faecium; settings: 50 μM final drug concentration; for fold induction at 50 µM: Enterococcus faecium, 3 h
[1] = system: S. aureus strain USA300-0114; type: cell-based, Staphylococcus aureus; settings: 50 μM final drug concentration; for fold induction at 50 µM: Staphylococcus aureus, USA300, 3 h
K. pneumoniae = type: cell-based, Klebsiella pneumoniae; settings: 50 μM final drug concentration; for fold induction at 50 µM: Klebsiella pneumoniae, 3 h
[2] = system: A. baumannii strain 98-37-09; type: cell-based, Acinetobacter baumannii; settings: 50 μM final drug concentration; for fold induction at 50 µM: Acinetobacter baumannii, 983709, 3 h
P. aeruginosa = type: cell-based, Pseudomonas aeruginosa; settings: 50 μM final drug concentration; for fold induction at 50 µM: Pseudomonas aeruginosa, 3 h
E. cloacae = type: cell-based, Enterobacter cloacae; settings: 50 μM final drug concentration; for fold induction at 50 µM: Enterobacter cloacae, 3 h
E. coli = type: cell-based, Escherichia coli; settings: 50 μM final drug concentration; for fold induction at 50 µM: Escherichia coli, 3 h
[3] = planktonic E. faecium, […], read-out: AK-based Prestwick Library Screening Results, E. faecium (increase in extracellular AK activity)
[4] = planktonic S. aureus, […], read-out: AK-based Prestwick Library Screening Results, S. aureus (increase in extracellular AK activity)
[5] = planktonic K. pneumoniae, […], read-out: AK-based Prestwick Library Screening Results, K. pneumoniae (increase in extracellular AK activity)
[6] = planktonic A. baumannii, […], read-out: AK-based Prestwick Library Screening Results, A. baumannii (increase in extracellular AK activity)
[7] = planktonic P. aeruginosa, […], read-out: AK-based Prestwick Library Screening Results, P. aeruginosa (increase in extracellular AK activity)
[8] = planktonic E. cloacae, […], read-out: AK-based Prestwick Library Screening Results, E. cloacae (increase in extracellular AK activity)
[9] = planktonic E. coli, […], read-out: AK-based Prestwick Library Screening Results, E. coli (increase in extracellular AK activity)
[10] = 384-well format, cutoff for positive-scoring molecules 3-fold increase, read-out: AK-based Prestwick Library Screening Results, E. faecium (increase in extracellular AK activity)
[11] = 384-well format, cutoff for positive-scoring molecules 3-fold increase, read-out: AK-based Prestwick Library Screening Results, S. aureus (increase in extracellular AK activity)
[12] = 384-well format, cutoff for positive-scoring molecules 3-fold increase, read-out: AK-based Prestwick Library Screening Results, K. pneumoniae (increase in extracellular AK activity)
[13] = 384-well format, cutoff for positive-scoring molecules 3-fold increase, read-out: AK-based Prestwick Library Screening Results, A. baumannii (increase in extracellular AK activity)
[14] = 384-well format, cutoff for positive-scoring molecules 3-fold increase, read-out: AK-based Prestwick Library Screening Results, P. aeruginosa (increase in extracellular AK activity)
[15] = 384-well format, cutoff for positive-scoring molecules 3-fold increase, read-out: AK-based Prestwick Library Screening Results, E. cloacae (increase in extracellular AK activity)
[16] = planktonic, cutoff for positive-scoring molecules 3-fold increase

SMILES: COc1ccc2cc1Oc1ccc(cc1)C[C@H]1c3cc(c(OC)cc3CCN1C)Oc1c(OC)c(OC)cc3c1[C@H](C2)N(C)CC3 [Tetrandrine]
- fold induction at 50 µM (E. faecium; planktonic, cutoff for positive-scoring molecules 3-fold increase, read-out: AK-based Prestwick Library Screening Results, E. faecium (fold increase in extracellular AK activity)): 1
- fold induction at 50 µM ([1]; planktonic, cutoff for positive-scoring molecules 3-fold increase, read-out: AK-based Prestwick Library Screening Results, S. aureus (fold increase in extracellular AK activity)): 0.9
- fold induction at 50 µM (K. pneumoniae; planktonic, cutoff for positive-scoring molecules 3-fold increase, read-out: AK-based Prestwick Library Screening Results, K. pneumoniae (fold increase in extracellular AK activity)): 0.9
- fold induction at 50 µM ([2]; planktonic, cutoff for positive-scoring molecules 3-fold increase, read-out: AK-based Prestwick Library Screening Results, A. baumannii (fold increase in extracellular AK activity)): 0.9
- fold induction at 50 µM (P. aeruginosa; planktonic, cutoff for positive-scoring molecules 3-fold increase, read-out: AK-based Prestwick Library Screening Results, P. aeruginosa (fold increase in extracellular AK activity)): 0.9
- fold induction at 50 µM (E. cloacae; planktonic, cutoff for positive-scoring molecules 3-fold increase, read-out: AK-based Prestwick Library Screening Results, E. cloacae (fold increase in extracellular AK activity)): 1.1
- fold induction at 50 µM (E. coli; planktonic, cutoff for positive-scoring molecules 3-fold increase, read-out: AK-based Prestwick Library Screening Results, E. coli (fold increase in extracellular AK activity)): 0.9

SMILES: CC1CCc2cc(F)cc3c(=O)c(C(=O)O)cn1c23 (stereo not drawn) [Flumequine]
- fold induction at 50 µM (E. faecium; planktonic E. faecium, 384-well, […], read-out: AK-based Prestwick Library Screening Results: E. faecium (increase in extracellular AK activity)): 1.5
- fold induction at 50 µM ([1]; planktonic S. aureus, 384-well, […], read-out: AK-based Prestwick Library Screening Results: S. aureus (increase in extracellular AK activity)): 2.2
- fold induction at 50 µM (K. pneumoniae; planktonic K. pneumoniae, 384-well, […], read-out: AK-based Prestwick Library Screening Results: K. pneumoniae (increase in extracellular AK activity)): 2.2
- fold induction at 50 µM ([2]; planktonic A. baumannii, 384-well, […], read-out: AK-based Prestwick Library Screening Results: A. baumannii (increase in extracellular AK activity)): 2.9
- fold induction at 50 µM (P. aeruginosa; planktonic P. aeruginosa, 384-well, […], read-out: AK-based Prestwick Library Screening Results: P. aeruginosa (increase in extracellular AK activity)): 1.4
- fold induction at 50 µM (E. cloacae; planktonic E. cloacae, 384-well, […], read-out: AK-based Prestwick Library Screening Results: E. cloacae (increase in extracellular AK activity)): 24.4
- fold induction at 50 µM (E. coli; planktonic E. coli, 384-well, […], read-out: AK-based Prestwick Library Screening Results: E. coli (increase in extracellular AK activity)): 13.6

SMILES: O=c1c(O)c(-c2ccc(O)c(O)c2)oc2cc(O)cc(O)c12 [Quercetine dihydrate]
- fold induction at 50 µM (E. faecium; [3]): 0.8
- fold induction at 50 µM [1, 4]: 0.1
- fold induction at 50 µM (K. pneumoniae; [5]): 0.6
- fold induction at 50 µM [2, 6]: 0.4
- fold induction at 50 µM (P. aeruginosa; [7]): 0.6
- fold induction at 50 µM (E. cloacae; [8]): 0.9
- fold induction at 50 µM (E. coli; [9]): 0.7

SMILES: C1CCc2nnnn2CC1 [Pentylenetetrazole]
- fold induction at 50 µM (E. faecium; [10]): 1
- fold induction at 50 µM [1, 11]: 0.7
- fold induction at 50 µM (K. pneumoniae; [12]): 0.5
- fold induction at 50 µM [2, 13]: 0.6
- fold induction at 50 µM (P. aeruginosa; [14]): 0.7
- fold induction at 50 µM (E. cloacae; [15]): 0.6
- fold induction at 50 µM (E. coli; 384-well format, […], read-out: AK-based Prestwick Library Screening Results, E. coli (increase in extracellular AK activity)): 0.6

SMILES: Cc1ccc(S(=O)(=O)NC(=O)NN2CCCCCC2)cc1 [Tolazamide]
- fold induction at 50 µM (E. faecium; planktonic, cutoff for positive 3-fold increase, read-out: AK-based Prestwick Library Screening Results, E. faecium (fold increase in extracellular AK activity)): 1
- fold induction at 50 µM ([1]; planktonic, cutoff for positive 3-fold increase, read-out: AK-based Prestwick Library Screening Results, S. aureus (fold increase in extracellular AK activity)): 1
- fold induction at 50 µM (K. pneumoniae; planktonic, cutoff for positive 3-fold increase, read-out: AK-based Prestwick Library Screening Results, K. pneumoniae (fold increase in extracellular AK activity)): 1.4
- fold induction at 50 µM ([2]; planktonic, cutoff for positive 3-fold increase, read-out: AK-based Prestwick Library Screening Results, A. baumannii (fold increase in extracellular AK activity)): 1.2
- fold induction at 50 µM (P. aeruginosa; planktonic, cutoff for positive 3-fold increase, read-out: AK-based Prestwick Library Screening Results, P. aeruginosa (fold increase in extracellular AK activity)): 1.4
- fold induction at 50 µM (E. cloacae; planktonic, cutoff for positive 3-fold increase, read-out: AK-based Prestwick Library Screening Results, E. cloacae (fold increase in extracellular AK activity)): 1.6
- fold induction at 50 µM (E. coli; planktonic, cutoff for positive 3-fold increase, read-out: AK-based Prestwick Library Screening Results, E. coli (fold increase in extracellular AK activity)): 1.5

SMILES: NC(=O)c1ncn([C@@H]2O[C@H](CO)[C@@H](O)[C@H]2O)n1 [Ribavirin]
- fold induction at 50 µM (E. faecium; planktonic E. faecium, positive cutoff 3-fold increase, read-out: AK-based Prestwick library screening result, E. faecium (fold increase in extracellular AK activity)): 0.9
- fold induction at 50 µM ([1]; planktonic S. aureus, positive cutoff 3-fold increase, read-out: AK-based Prestwick library screening result, S. aureus (fold increase in extracellular AK activity)): 0.7
- fold induction at 50 µM (K. pneumoniae; planktonic K. pneumoniae, positive cutoff 3-fold increase, read-out: AK-based Prestwick library screening result, K. pneumoniae (fold increase in extracellular AK activity)): 0.7
- fold induction at 50 µM ([2]; planktonic A. baumannii, positive cutoff 3-fold increase, read-out: AK-based Prestwick library screening result, A. baumannii (fold increase in extracellular AK activity)): 0.9
- fold induction at 50 µM (P. aeruginosa; planktonic P. aeruginosa, positive cutoff 3-fold increase, read-out: AK-based Prestwick library screening result, P. aeruginosa (fold increase in extracellular AK activity)): 1.1
- fold induction at 50 µM (E. cloacae; planktonic E. cloacae, positive cutoff 3-fold increase, read-out: AK-based Prestwick library screening result, E. cloacae (fold increase in extracellular AK activity)): 1.2
- fold induction at 50 µM (E. coli; planktonic E. coli, positive cutoff 3-fold increase, read-out: AK-based Prestwick library screening result, E. coli (fold increase in extracellular AK activity)): 0.8

SMILES: [H]/N=C(/N)N/C(=N/[H])NCCc1ccccc1 [Phenformin hydrochloride]
- fold induction at 50 µM (E. faecium; [10]): 1
- fold induction at 50 µM [1, 11]: 0.7
- fold induction at 50 µM (K. pneumoniae; [12]): 0.6
- fold induction at 50 µM [2, 13]: 0.8
- fold induction at 50 µM (P. aeruginosa; [14]): 0.7
- fold induction at 50 µM (E. cloacae; [15]): 0.8
- fold induction at 50 µM (E. coli; 384-well format, cutoff for positive-scoring molecules 3-fold increase, read-out: AK-based Prestwick Library Screening Results, E. coli (increase in extracellular AK activity)): 0.8

SMILES: Cl.Cl.c1ccc2c3c([nH]c2c1)C1C2CCC(C4CCCNC42)N1CC3 (stereo not drawn) [Nitrarine dihydrochloride]
- AK-based Prestwick Library Screening Results, E. faecium (fold increase in extracellular AK activity) (E. faecium; [16]): 1.0
- AK-based Prestwick Library Screening Results, S. aureus (fold increase in extracellular AK activity) [1, 16]: 1.3
- AK-based Prestwick Library Screening Results, K. pneumoniae (fold increase in extracellular AK activity) (K. pneumoniae; [16]): 1.1
- AK-based Prestwick Library Screening Results, A. baumannii (fold increase in extracellular AK activity) [2, 16]: 1.0
- AK-based Prestwick Library Screening Results, P. aeruginosa (fold increase in extracellular AK activity) (P. aeruginosa; [16]): 1.1
- AK-based Prestwick Library Screening Results, E. cloacae (fold increase in extracellular AK activity) (E. cloacae; [16]): 1.4
- AK-based Prestwick Library Screening Results, E. coli (fold increase in extracellular AK activity) (E. coli; planktonic, […]): 1.2

SMILES: COc1ccc2c3c1O[C@H]1C[C@@H](O)C=C[C@@]31CCN(C)C2 [Galanthamine hydrobromide]
- fold induction at 50 µM (E. faecium; [3]): 0.9
- fold induction at 50 µM [1, 4]: 0.8
- fold induction at 50 µM (K. pneumoniae; [5]): 0.8
- fold induction at 50 µM [2, 6]: 0.8
- fold induction at 50 µM (P. aeruginosa; [7]): 0.8
- fold induction at 50 µM (E. cloacae; [8]): 1
- fold induction at 50 µM (E. coli; [9]): 0.9
